Test system: type 2 diabetic rats with sulfonylurea secondary failure (N-STZ-1.5 rat)
Details: for Increment of plasma insulin level: 0 to 10 minutes after oral glucose loading (1 g/kg); for Increment of plasma insulin level / Increment of plasma glucose level: drug 10 mg/kg orally 30 min before glucose, male N-STZ-1.5 rats made glibenclamide-refractory, mean, n=6; for Increment of plasma glucose level: 0 to 60 minutes after oral glucose loading (1 g/kg); for plasma glucose level lowering effect / plasma insulin level increasing effect: in words, type 2 diabetic rats with sulfonylurea secondary failure, 10 mg/kg orally; for plasma glucose level lowering effect: summary of Table 1; for plasma insulin level increasing effect: summary of Table 2
Method: Streptozocin (STZ) (120 mg/kg body weight) was administered to a 1.5-day-old male WKY rat to prepare a type 2 diabetes model N-STZ-1.5 rat.
Glibenclamide (10 mg/kg body weight/day) was orally administered to the N-STZ-1.5 rats (male, 18 rats) every day for 4 consecutive weeks.
At 30 min after the administration, 1 g/kg body weight of a glucose solution was orally administered to each rat, and blood samples were collected from the rat tail vein before administration of the glucose solution and at 10, 30, 60 and 120 minutes after administration of the glucose solution, and the plasma glucose level and plasma insulin level were measured.
The plasma glucose level was measured using an L type Wako Glu2 (trade name, Wako Pure Chemical Industries, Ltd.) according to an enzyme method, and the plasma insulin level was measured using a SHIONORIA insulin kit (trade name, Shionogi & Co., Ltd.) by a radioimmunoassay.
In the Tables, the values show mean values (n=6).

SMILES | Increment of plasma insulin level [μU/ml] | Increment of plasma glucose level [mg/dL] | plasma glucose level lowering effect | plasma insulin level increasing effect
COc1ccc(Cl)cc1C(=O)NCCc1ccc(S(=O)(=O)NC(=O)NC2CCCCC2)cc1 [glibenclamide] | 29.37 | 178.40 | failed to show a plasma glucose level lowering effect | hardly showed a plasma insulin level increasing effect
Cc1cccc(C)c1-c1cccc(COc2ccc(CCC(=O)O)cc2)c1 [Compound A, 4-([2′,6′-dimethyl-1,1′-biphenyl]-3-ylmethoxy)benzenepropanoic acid] | 42.76 | 107.12 | superior plasma glucose level lowering effect | superior plasma insulin level increasing effect

— US7932289B2, “Remedy for diabetes” (Takeda Pharmaceutical Company Limited, priority 2004, dated 2011)
